The results in this text go back to US12624038B2, “Molecules and methods related to treatment of uncontrolled cellular proliferation” (ST. JUDE CHILDREN'S RESEARCH HOSPITAL, priority 2019, dated 2026).

Entries after “also recorded” stand apart in the source; their conditions may differ. Read-outs that look alike come from different tables or passages of the source.

One series deals with TYK2 (Homo sapiens, UniProt P29597). In words: KdELECT Kd measurement (KINOMEscan platform), TYK2. The format is binding. Also noted: purchased Eurofins DiscoveRx. The note with it: read-out: Kd to JAK family kinases, TYK2.
Chain of TYK2 (P29597 whole entry): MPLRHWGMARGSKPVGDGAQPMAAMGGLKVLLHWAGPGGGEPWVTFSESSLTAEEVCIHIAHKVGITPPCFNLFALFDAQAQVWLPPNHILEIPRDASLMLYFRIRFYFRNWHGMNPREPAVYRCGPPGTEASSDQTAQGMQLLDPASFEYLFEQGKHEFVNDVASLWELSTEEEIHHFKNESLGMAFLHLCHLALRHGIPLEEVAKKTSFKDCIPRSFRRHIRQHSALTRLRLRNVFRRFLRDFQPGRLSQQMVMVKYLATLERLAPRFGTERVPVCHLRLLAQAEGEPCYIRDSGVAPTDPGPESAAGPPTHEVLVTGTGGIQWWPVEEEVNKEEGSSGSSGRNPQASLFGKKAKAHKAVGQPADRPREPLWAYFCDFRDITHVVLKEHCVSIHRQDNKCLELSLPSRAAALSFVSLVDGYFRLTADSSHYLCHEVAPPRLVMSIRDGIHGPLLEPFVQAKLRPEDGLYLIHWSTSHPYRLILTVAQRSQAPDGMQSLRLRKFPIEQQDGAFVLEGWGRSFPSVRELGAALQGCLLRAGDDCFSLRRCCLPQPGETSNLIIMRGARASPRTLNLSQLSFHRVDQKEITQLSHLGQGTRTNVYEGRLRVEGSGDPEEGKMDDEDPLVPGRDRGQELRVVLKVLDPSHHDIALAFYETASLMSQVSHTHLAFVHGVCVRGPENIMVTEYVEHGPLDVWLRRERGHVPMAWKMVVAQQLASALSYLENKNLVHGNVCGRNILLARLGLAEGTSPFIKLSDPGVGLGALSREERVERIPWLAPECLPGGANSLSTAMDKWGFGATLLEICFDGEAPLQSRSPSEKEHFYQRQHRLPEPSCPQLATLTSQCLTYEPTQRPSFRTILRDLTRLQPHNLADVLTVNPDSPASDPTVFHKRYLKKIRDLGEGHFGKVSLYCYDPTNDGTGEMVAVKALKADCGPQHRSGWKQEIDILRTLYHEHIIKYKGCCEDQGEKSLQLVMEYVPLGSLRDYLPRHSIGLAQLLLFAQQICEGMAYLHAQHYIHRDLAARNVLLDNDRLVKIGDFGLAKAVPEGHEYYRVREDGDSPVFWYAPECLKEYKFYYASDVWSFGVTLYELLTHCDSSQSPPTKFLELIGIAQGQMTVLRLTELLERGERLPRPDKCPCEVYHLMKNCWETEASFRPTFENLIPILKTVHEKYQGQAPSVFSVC
The next series deals with MHH-CALL-4. In words: Cytotoxicity assay (resazurin, 72 hours) in MHH-CALL-4 cells. The format is cell-based, human. Conditions: for killing of MHH-CALL-4 cells (activity in words): correlated with degradation of GSPT1 and JAK2, FIG. 7F.
The subject of series [1] is Human CD45+ leukemic cells from patient derived xenografts (PDX). In words: Ex vivo cytotoxicity (MTT) in PDX leukemic cells. The note with it: FIG. 6A.
The nature of a further series: Caco-2 cell permeability. Type of series: in vitro ADME. Conditions: human, Caco-2; A to B (Table 4); read-out: Cac2 Papp A/B. On the procedure: Compound Caco-2 cell permeability was determined using the Transwell® 0.4 μm polycarbonate membrane 96-well as described before (Uchida, et al. (2009) J Pharmacol Toxicol Methods 59(1): 39-43). Briefly, Caco-2 cells monolayers were incubated over 2 hours at 37° C. Fractions were collected from receivers (basal side, B), and concentrations were assessed by UPLC/MS (Waters; Milford, MA). All compounds were tested in triplicates. The A→B (or B→A) apparent permeability coefficients (Papp) of each compound were calculated using the equation, Papp=dQ/dt×1/AC0, where dQ/dt equals the flux of a drug across the monolayer, A equals the total insert well surface area, and C0 is the initial concentration of substrate in the donor compartment.
Background: Caco-2 monolayers are a common model of the intestinal barrier.

Another series has as its target T1, JAK2 (Homo sapiens, UniProt O60674, I682F).
T1 construct: endogenous in cells; host or cells: MHH-CALL-4
In words: Target degradation (Western Blot) in MHH-CALL-4 cells, JAK2. Type of series: cell-based. Conditions: 100 nM PROTAC at 24 h.

Another series deals with T2, GSPT1 (Homo sapiens, UniProt P15170+Q96SW2).
T2 construct: endogenous in cells; host or cells: MHH-CALL-4
T2 sequence (P15170 whole entry): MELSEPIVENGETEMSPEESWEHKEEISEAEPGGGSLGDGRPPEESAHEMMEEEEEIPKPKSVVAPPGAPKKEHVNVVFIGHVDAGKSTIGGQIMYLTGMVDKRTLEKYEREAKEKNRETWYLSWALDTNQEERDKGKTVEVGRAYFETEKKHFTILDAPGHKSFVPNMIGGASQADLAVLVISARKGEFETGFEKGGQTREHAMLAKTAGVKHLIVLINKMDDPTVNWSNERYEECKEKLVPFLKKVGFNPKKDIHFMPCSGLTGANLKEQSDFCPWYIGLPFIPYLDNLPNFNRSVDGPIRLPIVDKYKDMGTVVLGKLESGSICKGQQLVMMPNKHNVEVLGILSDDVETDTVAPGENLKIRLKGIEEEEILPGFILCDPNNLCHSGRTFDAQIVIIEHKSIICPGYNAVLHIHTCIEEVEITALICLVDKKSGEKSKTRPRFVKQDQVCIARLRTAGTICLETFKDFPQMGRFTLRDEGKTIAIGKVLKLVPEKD
T2 sequence (Q96SW2 whole entry): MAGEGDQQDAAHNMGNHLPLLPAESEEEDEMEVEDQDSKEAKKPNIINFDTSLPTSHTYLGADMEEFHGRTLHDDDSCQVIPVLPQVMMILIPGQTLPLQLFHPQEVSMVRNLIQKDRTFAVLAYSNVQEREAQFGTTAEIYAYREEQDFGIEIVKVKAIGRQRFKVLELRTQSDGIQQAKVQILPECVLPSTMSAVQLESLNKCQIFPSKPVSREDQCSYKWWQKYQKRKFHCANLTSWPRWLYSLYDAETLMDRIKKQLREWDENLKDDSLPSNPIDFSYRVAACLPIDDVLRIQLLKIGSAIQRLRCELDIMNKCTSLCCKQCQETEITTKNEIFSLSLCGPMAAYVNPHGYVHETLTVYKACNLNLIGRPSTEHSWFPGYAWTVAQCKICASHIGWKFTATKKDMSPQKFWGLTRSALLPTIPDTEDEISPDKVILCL
T2 sequence (Q16531 whole entry partner): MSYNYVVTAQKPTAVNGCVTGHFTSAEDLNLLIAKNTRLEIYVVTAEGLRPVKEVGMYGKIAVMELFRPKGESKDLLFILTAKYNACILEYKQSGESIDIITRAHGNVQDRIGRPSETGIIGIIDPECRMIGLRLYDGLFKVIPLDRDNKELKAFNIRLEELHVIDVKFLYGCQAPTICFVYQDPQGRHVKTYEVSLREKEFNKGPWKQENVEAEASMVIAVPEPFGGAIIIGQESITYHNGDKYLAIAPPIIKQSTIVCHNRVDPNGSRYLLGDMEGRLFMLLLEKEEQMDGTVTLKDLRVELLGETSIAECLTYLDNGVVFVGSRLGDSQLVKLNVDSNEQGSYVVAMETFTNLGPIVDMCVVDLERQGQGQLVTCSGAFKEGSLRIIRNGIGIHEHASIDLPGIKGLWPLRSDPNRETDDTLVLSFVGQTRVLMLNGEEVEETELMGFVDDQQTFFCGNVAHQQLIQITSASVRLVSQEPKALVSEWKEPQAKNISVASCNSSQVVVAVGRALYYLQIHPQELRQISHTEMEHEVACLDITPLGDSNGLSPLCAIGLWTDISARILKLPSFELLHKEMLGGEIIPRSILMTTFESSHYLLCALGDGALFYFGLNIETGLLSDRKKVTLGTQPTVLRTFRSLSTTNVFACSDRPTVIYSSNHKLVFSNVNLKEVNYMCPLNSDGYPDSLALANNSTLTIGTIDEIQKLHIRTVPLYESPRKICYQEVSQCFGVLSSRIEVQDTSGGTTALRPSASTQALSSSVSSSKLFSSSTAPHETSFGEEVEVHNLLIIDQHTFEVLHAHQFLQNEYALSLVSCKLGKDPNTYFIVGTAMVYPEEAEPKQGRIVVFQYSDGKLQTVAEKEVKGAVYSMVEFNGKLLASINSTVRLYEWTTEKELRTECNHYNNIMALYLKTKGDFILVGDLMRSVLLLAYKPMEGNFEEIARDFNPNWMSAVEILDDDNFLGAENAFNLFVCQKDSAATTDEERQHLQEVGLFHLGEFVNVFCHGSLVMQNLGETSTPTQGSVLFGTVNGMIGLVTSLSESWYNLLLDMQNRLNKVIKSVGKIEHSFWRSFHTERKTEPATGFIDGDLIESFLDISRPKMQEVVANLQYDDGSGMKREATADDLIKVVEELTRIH
In words: Target degradation (Western Blot) in MHH-CALL-4 cells, GSPT1. The format is cell-based. The note with it: 100 nM PROTAC at 24 h. On the technique in general: In western blotting, separated proteins are transferred to a membrane and probed.

The target in the next series is T3, IKZF1 (Homo sapiens, UniProt Q13422+Q96SW2).
T3 construct: endogenous in cells; host or cells: MHH-CALL-4
T3 sequence (Q13422 whole entry): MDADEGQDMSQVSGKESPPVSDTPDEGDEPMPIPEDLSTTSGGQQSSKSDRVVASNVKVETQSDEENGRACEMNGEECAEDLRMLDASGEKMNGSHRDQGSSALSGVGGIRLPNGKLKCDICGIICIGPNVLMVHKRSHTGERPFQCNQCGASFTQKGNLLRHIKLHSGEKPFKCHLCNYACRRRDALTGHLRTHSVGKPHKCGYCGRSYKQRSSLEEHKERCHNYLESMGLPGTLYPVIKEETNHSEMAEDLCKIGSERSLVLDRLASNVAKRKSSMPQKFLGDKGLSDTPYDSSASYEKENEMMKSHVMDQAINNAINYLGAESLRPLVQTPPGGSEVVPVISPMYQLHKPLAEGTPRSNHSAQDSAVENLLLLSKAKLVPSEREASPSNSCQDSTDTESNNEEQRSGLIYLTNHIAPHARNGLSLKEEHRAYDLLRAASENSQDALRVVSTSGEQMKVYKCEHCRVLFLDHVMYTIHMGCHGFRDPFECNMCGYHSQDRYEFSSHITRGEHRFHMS
T3 sequence (Q96SW2 whole entry): as the sequence (Q96SW2 whole entry) above
T3 sequence (Q16531 whole entry partner): as the sequence (Q16531 whole entry partner) above
In words: Target degradation (Western Blot) in MHH-CALL-4 cells, IKZF1. The format is cell-based. Conditions: 100 nM PROTAC at 24 h.

[2] abbreviates: Homo sapiens, MHHCALL4, Table 6, starred: EC50 from partial dose response curve, read-out: MHHCALL4 EC50 from partial dose response curve.
The mark [3] stands for this setting: Homo sapiens, MHHCALL4, MHH-CALL-4 (Table 2), read-out: EC50 in MHH-CALL-4.
[4] abbreviates: Homo sapiens, MHHCALL4, MHH-CALL-4 (Table 1), read-out: EC50.

By Kd is commonly meant the free concentration of one partner at which half of the binding sites on the other are occupied at equilibrium, for simple one-to-one binding. The term EC50 denotes the concentration needed to bring the measured effect to its halfway point.

T1 sequence (O60674 whole entry I682F): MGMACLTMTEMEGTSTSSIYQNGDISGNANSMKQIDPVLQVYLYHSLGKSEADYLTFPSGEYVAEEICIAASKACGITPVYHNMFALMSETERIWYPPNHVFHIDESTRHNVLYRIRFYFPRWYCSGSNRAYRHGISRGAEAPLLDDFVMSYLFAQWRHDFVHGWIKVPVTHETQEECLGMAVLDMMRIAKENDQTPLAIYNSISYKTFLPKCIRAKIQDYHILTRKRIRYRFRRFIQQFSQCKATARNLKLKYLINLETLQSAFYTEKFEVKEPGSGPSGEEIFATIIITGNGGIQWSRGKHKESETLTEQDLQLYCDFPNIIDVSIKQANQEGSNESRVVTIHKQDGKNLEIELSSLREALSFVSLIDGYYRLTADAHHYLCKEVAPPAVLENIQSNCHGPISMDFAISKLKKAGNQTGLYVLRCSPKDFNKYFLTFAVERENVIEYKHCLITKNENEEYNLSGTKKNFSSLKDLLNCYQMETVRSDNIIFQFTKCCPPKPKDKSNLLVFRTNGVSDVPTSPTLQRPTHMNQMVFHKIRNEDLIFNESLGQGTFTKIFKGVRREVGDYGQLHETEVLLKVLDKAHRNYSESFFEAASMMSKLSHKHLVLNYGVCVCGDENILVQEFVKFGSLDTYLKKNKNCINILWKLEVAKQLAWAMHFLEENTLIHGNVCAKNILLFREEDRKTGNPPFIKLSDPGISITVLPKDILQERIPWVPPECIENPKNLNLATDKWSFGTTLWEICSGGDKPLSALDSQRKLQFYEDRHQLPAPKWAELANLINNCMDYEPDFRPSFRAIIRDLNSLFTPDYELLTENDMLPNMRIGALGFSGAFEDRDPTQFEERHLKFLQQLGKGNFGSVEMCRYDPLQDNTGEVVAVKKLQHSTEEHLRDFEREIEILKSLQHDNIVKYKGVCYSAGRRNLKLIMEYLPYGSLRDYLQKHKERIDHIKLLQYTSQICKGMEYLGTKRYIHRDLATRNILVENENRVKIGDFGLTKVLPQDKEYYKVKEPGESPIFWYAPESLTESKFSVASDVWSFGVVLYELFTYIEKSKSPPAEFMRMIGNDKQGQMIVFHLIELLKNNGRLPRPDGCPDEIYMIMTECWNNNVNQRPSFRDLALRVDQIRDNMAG

For `CCS(=O)(=O)N1CC(CC#N)(n2cc(-c3ncnc4[nH]ccc34)cn2)C1` [Baricitinib, baricitinib, reference compound], at TYK2, the Kd is 0.0013 µM.

On to `CC(=O)Nc1cc(Oc2ccc3c(nc(Nc4ccc(F)cc4F)n3C)c2C)ccn1` [CHZ868, reference compound], for which, in the series on MHH-CALL-4 (MHH-CALL-4 (Table 2), read-out: EC50 in MHH-CALL-4), the EC50 came out at 0.18 µM. Moreover, the “cytotoxicity in PDX cells ex vivo” value in series [1] is “not”.

Regarding `CCS(=O)(=O)N1CC(CC#N)(n2cc(-c3nc(Nc4ccc(C(=O)NCCN5CCN(c6ccc7c(c6)C(=O)N(C6CCC(=O)NC6=O)C7=O)CC5)cc4)nc4[nH]ccc34)cn2)C1` (centres unmarked) [Compound 8], in the series on MHH-CALL-4, the “killing of MHH-CALL-4 cells (activity in words)” value (“killing of MHH-CALL-4 cells” below) is “intermediately effective; also recorded: reduced activity”. Further, in the series “Caco-2 cell permeability”, the Papp A→B at 2 h worked out at 0.002 ×10⁻⁶ cm/s.

Take `CCS(=O)(=O)N1CC(CC#N)(n2cc(-c3nc(Nc4ccc(C(=O)NCCCNc5ccc6c(c5)C(=O)N(C5CCC(=O)NC5=O)C6=O)cc4)nc4[nH]ccc34)cn2)C1` (centres unmarked) [Compound 53]: in the series with MHH-CALL-4 (setting [2]), the EC50 was determined as 0.0346 µM. In addition, the “killing of MHH-CALL-4 cells” value in the series with MHH-CALL-4 was “intermediately effective”. Besides, at JAK2, the “Target Degradation (Western Blot) JAK2” value is reported as 1 (1 = None (<20% degradation at 24 h)). In addition, the “Target Degradation (Western Blot) GSPT1” value on GSPT1 is listed as 3 (3 = Strong (>60% degradation at 24 h)).

For `CCS(=O)(=O)N1CC(CC#N)(n2cc(-c3nc(Nc4ccc(C(=O)NCCCN5CCN(c6ccc7c(c6)C(=O)N(C6CCC(=O)NC6=O)C7=O)CC5)cc4)nc4[nH]ccc34)cn2)C1` (centres unmarked) [Compound 56], the EC50 in the series on MHH-CALL-4 (setting [2]) was determined as 0.562 µM. The “killing of MHH-CALL-4 cells” value in the series on MHH-CALL-4 is recorded as “intermediately effective”. Besides, the “Target Degradation (Western Blot) JAK2” value at JAK2 was 2 (2 = Medium (20-40% degradation at 24 h)). The “Target Degradation (Western Blot) IKZF1” value on IKZF1 is listed as 1 (1 = None (<20% degradation at 24 h)).

As for `CCS(=O)(=O)N1CC(CC#N)(n2cc(-c3nc(Nc4ccc(C(=O)NCCCNC(=O)COc5cccc6c5C(=O)N(C5CCC(=O)NC5=O)C6=O)cc4)nc4[nH]ccc34)cn2)C1` (centres unmarked) [Compound 59], in the series on MHH-CALL-4 (setting [2]), the EC50 came out at 4.19 µM. The “killing of MHH-CALL-4 cells” value in the series on MHH-CALL-4 is “relatively low activity”. For the same compound, the “Target Degradation (Western Blot) JAK2” value at JAK2 is on record as 1 (1 = None (<20% degradation at 24 h)). Further, the “Target Degradation (Western Blot) IKZF1” value at IKZF1 is 1 (1 = None (<20% degradation at 24 h)).

For `CCS(=O)(=O)N1CC(CC#N)(n2cc(-c3nc(Nc4ccc(C(=O)NCCCCNc5cccc6c5C(=O)N(C5CCC(=O)N(C)C5=O)C6=O)cc4)nc4[nH]ccc34)cn2)C1` (centres unmarked) [Compound 61], in the series on MHH-CALL-4 (setting [2]), the EC50 worked out at 0.0515 µM. Moreover, in the series on MHH-CALL-4, the “killing of MHH-CALL-4 cells” value was “intermediately effective”. The “Target Degradation (Western Blot) JAK2” value at JAK2 was 1 (1 = None (<20% degradation at 24 h)). Also, the “Target Degradation (Western Blot) IKZF1” value at IKZF1 was 2 (2 = Medium (20-40% degradation at 24 h)).

Take `CCS(=O)(=O)N1CC(CC#N)(n2cc(-c3nc(Nc4ccc(C(=O)NCCCCNc5ccc6c(c5)C(=O)N(C5CCC(=O)NC5=O)C6=O)cc4)nc4[nH]ccc34)cn2)C1` (centres unmarked) [Compound 80]: in the series on MHH-CALL-4 (Homo sapiens, MHHCALL4, Table 6, no star, read-out: MHHCALL4 EC50), the EC50 is greater than 5.5 µM. Besides, in the series with MHH-CALL-4, the “killing of MHH-CALL-4 cells” value is “relatively low activity”. Besides, the “Target Degradation (Western Blot) JAK2” value on JAK2 is reported as 1 (1 = None (<20% degradation at 24 h)). Besides, the “Target Degradation (Western Blot) IKZF1” value on IKZF1 is listed as 1 (1 = None (<20% degradation at 24 h)).

As for `Nc1cccc2c1CN(C1CCC(=O)NC1=O)C2=O` (centres unmarked) [Lenalidomide, lenalidomide, reference compound], the EC50 with MHH-CALL-4 (setting [3]) was found to be 34.5 µM.

Regarding `Nc1cccc2c1C(=O)N(C1CCC(=O)NC1=O)C2=O` (centres unmarked) [Pomalidomide, pomalidomide, reference compound], the EC50 in the series on MHH-CALL-4 (setting [3]) was 63.7 µM.

On to `N#CC[C@H](C1CCCC1)n1cc(-c2ncnc3[nH]ccc23)cn1` [Ruxolitinib, ruxolitinib, reference compound], for which the EC50 was 25.8 µM with MHH-CALL-4 (Homo sapiens, MHHCALL4, read-out: EC50 in MHH-CALL-4) and 25.8 µM with MHH-CALL-4 (Homo sapiens, MHHCALL4, read-out: MHHCALL4 EC50).

For `CCCn1cc(-c2nc(Nc3ccc(C(=O)NCCOCCOCCOCCOCCNc4cccc5c4C(=O)N(C4CCC(=O)NC4=O)C5=O)cc3)nc3[nH]ccc23)cn1` (centres unmarked) [SJ000986049], the EC50 with MHH-CALL-4 (setting [4]) was determined as 2.3 µM.

Regarding `CCCn1cc(-c2nc(Nc3ccc(C(=O)NCCOCCOCCOCCOCCOCCOCCNc4cccc5c4C(=O)N(C4CCC(=O)NC4=O)C5=O)cc3)nc3[nH]ccc23)cn1` (centres unmarked) [SJ000986050], the EC50 in the series with MHH-CALL-4 (setting [4]) was found to be 0.72 µM.

For the compound `CCCn1cc(-c2nc(NCCOCCOCCOCCOCCOCCOCCNC(=O)CNc3cccc4c3CN(C3CCC(=O)NC3=O)C4=O)nc3[nH]ccc23)cn1` (centres unmarked) [SJ000986078, 2-((2-(2,6-dioxopiperidin-3-yl)-1-oxoisoindolin-4-yl)amino)-N-(20-((4-(1-propyl-1H-pyrazol-4-yl)-7H-pyrrolo[2,3-d]pyrimidin-2-yl)amino)-3,6,9,12,15,18-hexaoxaicosyl)acetamide], in the series with MHH-CALL-4 (setting [4]), the EC50 was greater than 100 µM.

In the case of `CCCn1cc(-c2nc(NCCOCCOCCOCCOCCNC(=O)CNc3cccc4c3CN(C3CCC(=O)NC3=O)C4=O)nc3[nH]ccc23)cn1` (centres unmarked) [SJ000986079, 2-((2-(2,6-dioxopiperidin-3-yl)-1-oxoisoindolin-4-yl)amino)-N-(14-((4-(1-propyl-1H-pyrazol-4-yl)-7H-pyrrolo[2,3-d]pyrimidin-2-yl)amino)-3,6,9,12-tetraoxatetradecyl)acetamide], the EC50 in the series with MHH-CALL-4 (setting [4]) was greater than 100 µM.

Consider `CCCn1cc(-c2nc(Nc3ccc(C(=O)NCCOCCOCCNc4cccc5c4C(=O)N(C4CCC(=O)NC4=O)C5=O)cc3)nc3[nH]ccc23)cn1` (centres unmarked) [SJ000986339], for which, in the series on MHH-CALL-4 (setting [4]), the EC50 was greater than 100 µM.

As to `CCCn1cc(-c2nc(Nc3ccc(NC(=O)CCOCCOCCOCCOCCOCCOCCNc4cccc5c4C(=O)N(C4CCC(=O)NC4=O)C5=O)cc3)nc3[nH]ccc23)cn1` (centres unmarked) [SJ000986341], the EC50 with MHH-CALL-4 (setting [4]) was 5.83 µM.

Regarding `CCCn1cc(-c2nc(Nc3ccc(NC(=O)CCOCCOCCOCCOCCOCCNc4cccc5c4C(=O)N(C4CCC(=O)NC4=O)C5=O)cc3)nc3[nH]ccc23)cn1` (centres unmarked) [SJ000986342], in the series with MHH-CALL-4 (setting [4]), the concentration giving a half-maximal response (EC50) was 6.89 µM.

As to `CCCn1cc(-c2nc(Nc3ccc(C(=O)NCCOCCOCCOCCOCCOCCOCCNc4cccc5c4C(=O)N(C4CCCNC4=O)C5=O)cc3)nc3[nH]ccc23)cn1` (centres unmarked) [SJ000986343], the EC50 in the series on MHH-CALL-4 (setting [4]) was 12.8 µM.

Regarding `O=C1CCC(N2C(=O)c3ccccc3C2=O)C(=O)N1` (centres unmarked) [Thalidomide, thalidomide, reference compound], the concentration giving a half-maximal response (EC50) with MHH-CALL-4 (setting [3]) worked out at 60 µM.
